This is an account of results in patent US7928140B2, “Benzothiazole PI3 kinase modulators for cancer treatment” (Amgen Inc., priority 2007, dated 2011).

Where two headings read alike, the source gives them in different places.

One test has as its target T1, PI3K α (Homo sapiens, UniProt P42336).
T1 construct: Full length p110 subunits of PI3K α, β and δ, N-terminally labeled with polyHis tag; polyHis (N); made in house; host or cells: Sf9 insect cells (baculovirus)
Nature of the test: In vitro PI3 kinase enzyme assay (alpha), ATP loss, bioluminescence.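 Further: purified p110α/p85 heterodimer acting on PtdIns(4,5)P2 at room temperature, remaining ATP read by luminescence, inhibition scaled between compound-free wells with and without enzyme.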 In kind it is biochemical. Particulars: read-out: PI3Kα ATP loss IC50.

Test [1] relates to phosphorylation of Serine 473 in Akt, HCT 116 human colon carcinoma cells. Nature of the test: Cell-based phospho-AKT Ser473 assay (MSD sandwich immunoassay, IGF-1 stimulated). Particulars: read-out: HCT 116 pAKT IC50. In outline: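 HCT116 cells, 16,000/well and plated overnight, were pre-treated with serially diluted compound for 2 h at 37 °C, then stimulated with IGF-1 at 100 ng/ml for 15 min. Lysates were assayed for Akt pSer473 by MSD sandwich electrochemiluminescence, and IC50 was derived from dose-response data.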

A further test concerns the target T2, PI3K β (Homo sapiens, UniProt P42338).
T2 construct: Full length p110 subunits of PI3K α, β and δ, N-terminally labeled with polyHis tag; polyHis (N); made in house; host or cells: Sf9 insect cells (baculovirus)
Nature of the test: In vitro PI3 kinase enzyme assay (beta), ATP loss, bioluminescence.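 Further: purified p110β/p85 heterodimer with PtdIns(4,5)P2 as acceptor, incubated at room temperature, leftover ATP read by luminescence, inhibition scaled to compound-free wells with and without enzyme.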 To be noted: read-out: PI3Kβ ATP loss IC50. In kind it is biochemical.

The mark [2] stands for this setting: Homo sapiens, HCT-116, HCT 116 cells.

T2 sequence (P42338 whole entry): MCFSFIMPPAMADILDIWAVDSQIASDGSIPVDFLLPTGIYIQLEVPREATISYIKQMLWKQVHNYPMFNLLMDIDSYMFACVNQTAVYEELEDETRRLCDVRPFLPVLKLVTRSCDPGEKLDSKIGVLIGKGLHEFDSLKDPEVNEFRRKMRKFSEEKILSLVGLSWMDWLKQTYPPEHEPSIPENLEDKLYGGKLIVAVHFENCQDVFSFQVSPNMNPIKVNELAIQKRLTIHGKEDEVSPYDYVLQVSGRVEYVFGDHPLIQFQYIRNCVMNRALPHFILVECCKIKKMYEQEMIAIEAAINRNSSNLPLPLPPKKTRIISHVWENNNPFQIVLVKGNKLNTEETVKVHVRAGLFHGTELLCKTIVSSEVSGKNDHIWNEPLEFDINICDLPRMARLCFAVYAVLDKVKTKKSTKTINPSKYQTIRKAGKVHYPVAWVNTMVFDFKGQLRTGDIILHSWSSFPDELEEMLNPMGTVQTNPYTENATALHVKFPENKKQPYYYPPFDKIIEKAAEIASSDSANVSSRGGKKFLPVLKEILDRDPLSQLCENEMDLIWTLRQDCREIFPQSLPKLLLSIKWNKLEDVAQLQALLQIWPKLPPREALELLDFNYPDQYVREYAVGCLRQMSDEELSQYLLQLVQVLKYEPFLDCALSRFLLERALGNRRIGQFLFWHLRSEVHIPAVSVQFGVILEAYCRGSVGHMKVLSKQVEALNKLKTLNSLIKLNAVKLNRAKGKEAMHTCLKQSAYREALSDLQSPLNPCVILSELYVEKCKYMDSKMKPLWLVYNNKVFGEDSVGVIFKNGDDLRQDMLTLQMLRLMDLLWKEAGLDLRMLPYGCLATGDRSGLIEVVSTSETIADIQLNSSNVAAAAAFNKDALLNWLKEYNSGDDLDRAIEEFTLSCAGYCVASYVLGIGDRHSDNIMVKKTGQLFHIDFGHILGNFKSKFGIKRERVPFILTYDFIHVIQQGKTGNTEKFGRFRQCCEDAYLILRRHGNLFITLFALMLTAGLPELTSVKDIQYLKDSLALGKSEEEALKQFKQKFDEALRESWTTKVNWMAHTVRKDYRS
T2 sequence (P27986 whole entry partner): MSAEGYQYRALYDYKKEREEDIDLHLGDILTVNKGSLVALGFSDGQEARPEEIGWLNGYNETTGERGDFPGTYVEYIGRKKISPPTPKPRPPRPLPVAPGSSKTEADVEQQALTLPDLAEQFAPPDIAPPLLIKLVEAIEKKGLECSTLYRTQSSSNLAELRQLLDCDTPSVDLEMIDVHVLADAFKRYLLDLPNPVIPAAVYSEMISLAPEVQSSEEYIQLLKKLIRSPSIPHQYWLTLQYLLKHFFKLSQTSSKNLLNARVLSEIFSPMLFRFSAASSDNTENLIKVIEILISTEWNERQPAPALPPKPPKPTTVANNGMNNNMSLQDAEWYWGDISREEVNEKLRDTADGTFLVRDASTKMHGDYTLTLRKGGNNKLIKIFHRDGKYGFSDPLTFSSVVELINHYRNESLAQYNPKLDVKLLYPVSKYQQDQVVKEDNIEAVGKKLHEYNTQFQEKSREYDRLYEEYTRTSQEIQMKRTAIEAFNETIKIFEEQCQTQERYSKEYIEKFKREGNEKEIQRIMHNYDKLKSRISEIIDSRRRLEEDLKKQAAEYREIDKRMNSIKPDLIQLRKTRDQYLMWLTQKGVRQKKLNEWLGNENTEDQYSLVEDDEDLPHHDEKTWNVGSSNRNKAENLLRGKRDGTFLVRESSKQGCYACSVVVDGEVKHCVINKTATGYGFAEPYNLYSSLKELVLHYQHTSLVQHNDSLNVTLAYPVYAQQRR
T1 sequence (P42336 whole entry, species assumed): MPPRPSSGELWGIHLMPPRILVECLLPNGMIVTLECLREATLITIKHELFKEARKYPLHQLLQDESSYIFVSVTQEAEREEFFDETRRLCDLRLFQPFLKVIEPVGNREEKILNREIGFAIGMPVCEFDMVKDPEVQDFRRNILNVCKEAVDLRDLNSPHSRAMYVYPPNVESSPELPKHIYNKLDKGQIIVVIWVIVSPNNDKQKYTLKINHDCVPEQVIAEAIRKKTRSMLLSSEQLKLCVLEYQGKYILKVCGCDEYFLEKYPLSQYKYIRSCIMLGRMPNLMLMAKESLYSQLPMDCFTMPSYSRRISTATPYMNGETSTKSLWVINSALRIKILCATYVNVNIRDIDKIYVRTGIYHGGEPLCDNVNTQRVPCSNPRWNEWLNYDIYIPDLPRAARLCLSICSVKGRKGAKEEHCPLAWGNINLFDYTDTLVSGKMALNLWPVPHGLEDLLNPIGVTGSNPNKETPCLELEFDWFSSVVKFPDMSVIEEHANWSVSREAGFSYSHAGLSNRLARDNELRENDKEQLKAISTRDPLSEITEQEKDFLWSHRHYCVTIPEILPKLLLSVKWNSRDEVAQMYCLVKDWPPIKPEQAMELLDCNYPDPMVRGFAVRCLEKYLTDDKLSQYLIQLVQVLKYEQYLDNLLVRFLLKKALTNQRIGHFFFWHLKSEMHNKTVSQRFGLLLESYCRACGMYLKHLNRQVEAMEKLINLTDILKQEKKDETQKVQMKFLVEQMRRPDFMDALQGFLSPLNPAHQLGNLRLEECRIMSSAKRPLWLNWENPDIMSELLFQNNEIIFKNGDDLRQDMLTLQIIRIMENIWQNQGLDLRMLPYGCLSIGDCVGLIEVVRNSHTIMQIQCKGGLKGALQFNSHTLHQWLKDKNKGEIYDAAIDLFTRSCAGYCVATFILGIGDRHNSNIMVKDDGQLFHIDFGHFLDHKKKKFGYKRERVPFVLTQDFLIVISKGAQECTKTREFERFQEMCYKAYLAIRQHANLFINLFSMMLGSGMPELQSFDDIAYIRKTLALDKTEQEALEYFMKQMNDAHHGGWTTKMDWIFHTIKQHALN
T1 sequence (P27986 whole entry partner, species assumed): as the sequence (P27986 whole entry partner) above

Broadly, the IC50 is the concentration needed to halve the response being measured. Regarding `CC(=O)Nc1nc2ccc(-c3cnc(Cl)c(NS(=O)(=O)Cc4ccccc4)c3)cc2s1` [Example 188, N-(6-(6-chloro-5-(phenylmethylsulfonamido)pyridin-3-yl)benzo[d]thiazol-2-yl)acetamide], the values for the IC50 (on PI3K α; in test [1] (setting [2]); on PI3K β) were 6.9 nM, 110 nM and 25.4 nM, respectively.
On to `CC(=O)Nc1nc2ccc(-c3cnc(C)c(NS(=O)(=O)c4cccc(OC(F)F)c4)c3)cc2s1` [Example 115, N-(6-(5-(((3-(difluoromethoxy)phenyl)sulfonyl)amino)-6-methyl-3-pyridinyl)-1,3-benzothiazol-2-yl)acetamide], for which the IC50 at PI3K α was 7.1 nM; in test [1] (setting [2]) it was 30.7 nM; at PI3K β, 15 nM.
With `CC(=O)Nc1nc2ccc(-c3cncc(N(C)S(=O)(=O)c4ccc(C(C)(C)C)cc4)c3)cc2s1` [Example 223, N-(6-(5-(4-tert-butyl-N-methylphenylsulfonamido)pyridin-3-yl)benzo[d]thiazol-2-yl)acetamide], the IC50 was determined as 53.5 nM at PI3K α, 417 nM in test [1] (setting [2]) and 3820 nM on PI3K β.
Turning to `O=S(=O)(Nc1cc(-c2ccc3ncoc3c2)cnc1Cl)c1ccc(F)cc1` [Example 326, N-(5-(1,3-benzoxazol-6-yl)-2-chloro-3-pyridinyl)-4-fluorobenzenesulfonamide], the IC50 on PI3K α was 22.3 nM; in test [1] (setting [2]), more than 5000 nM; on PI3K β, 34.5 nM.
For `CC(C)Nc1cc(-c2ccc3nc(NC(=O)C[C@@H]4CCCO4)sc3c2)cnc1Cl` [Example 151, N-(6-(6-chloro-5-((1-methylethyl)amino)-3-pyridinyl)-1,3-benzothiazol-2-yl)-2-((2S)-tetrahydro-2-furanyl)acetamide], in that order: 230 nM, more than 5000 nM and 1620 nM.
For `CC(=O)Nc1nc2ccc(-c3ccnc(Sc4ccccc4F)n3)cc2s1` [Example 23, N-(6-(2-((2-fluorophenyl)sulfanyl)-4-pyrimidinyl)-1,3-benzothiazol-2-yl)acetamide] the same measures were 62.3 nM, 350 nM and 307 nM.
For `CC(=O)Nc1nc2ccc(-c3ccnc(OCCCn4ccnn4)n3)cc2s1` [Example 20, N-(6-(2-(3-(1H-1,2,3-triazol-1-yl)propoxy)-4-pyrimidinyl)-1,3-benzothiazol-2-yl)acetamide] the same measures were 266 nM, 1930 nM and 5240 nM.
As to `COc1cccc(COc2nccc(-c3ccc4nc(NC(C)=O)sc4c3)n2)c1` [Example 108, N-(6-(2-((3-methoxybenzyl)oxy)-4-pyrimidinyl)-1,3-benzothiazol-2-yl)acetamide], the values for the half-maximal inhibitory concentration (IC50) (at PI3K α; in test [1] (setting [2]); on PI3K β) were 96.7 nM, 682 nM and 292 nM, respectively.
On to `CC(=O)Nc1nc2ccc(-c3cncc(NS(=O)(=O)c4ccc(F)cc4)c3)nc2s1` [Example 228, N-(5-(5-(4-Fluorophenylsulfonamido)pyridin-3-yl)thiazolo[5,4-b]pyridin-2-yl)acetamide], for which the IC50 on PI3K α stood at 7.5 nM; in test [1] (setting [2]), 54.9 nM; at PI3K β, 55.9 nM.
On to `CCCCS(=O)(=O)Nc1cc(-c2ccc3nc(NC(C)=O)sc3c2)cnc1Cl` [Example 178, N-(6-(5-(butylsulfonamido)-6-chloropyridin-3-yl)benzo[d]thiazol-2-yl)acetamide], for which the IC50 on PI3K α was 10.6 nM; in test [1] (setting [2]), 15.6 nM; on PI3K β, 19.9 nM.
In the case of `CNc1nc2ccc(-c3cnc(Cl)c(NS(=O)(=O)c4ccc(C(C)=O)cc4)c3)cc2s1` [Example 321, 4-acetyl-N-(2-chloro-5-(2-(methylamino)-1,3-benzothiazol-6-yl)-3-pyridinyl)benzenesulfonamide], the IC50 was found to be 12 nM on PI3K α, 672 nM in test [1] (setting [2]) and 22.2 nM on PI3K β.
As to `CC(=O)Nc1nc2ccc(-c3ccnc(OCC(C)(C)C)n3)cc2s1` [Example 42, N-(6-(2-(2,2-dimethylpropoxy)-4-pyrimidinyl)-1,3-benzothiazol-2-yl)acetamide], the IC50 at PI3K α came out at 501 nM; in test [1] (setting [2]), 6180 nM; on PI3K β, 43000 nM.
For `CC(=O)Nc1nc2ccc(-c3cncc(F)c3)cc2s1` [Example 289, N-(6-(5-Fluoropyridin-3-yl)benzo[d]thiazol-2-yl)acetamide], in that order: 96.3 nM, 450 nM and 3210 nM.
Turning to `CNc1nc2ccc(-c3cnc(Cl)c(NS(=O)(=O)c4ccc(F)cc4)c3)cc2s1` [Example 317, N-(2-chloro-5-(2-(methylamino)-1,3-benzothiazol-6-yl)-3-pyridinyl)-4-fluorobenzenesulfonamide], the results for the IC50 (at PI3K α; in test [1] (setting [2]); on PI3K β) were 8.6 nM, 246 nM and 30.2 nM, respectively.
For the compound `CC(=O)Nc1nc2ccc(-c3ccnc(N(C)S(=O)(=O)c4ccc(C(F)(F)F)cc4)n3)cc2s1` [Example 213, N-(6-(2-(N-methyl-4-(trifluoromethyl)phenylsulfonamido)pyrimidin-4-yl)benzo[d]thiazol-2-yl)acetamide], the IC50 amounted to 91.3 nM at PI3K α, 92.8 nM in test [1] (setting [2]) and 119 nM on PI3K β.
For the compound `COc1ccc(Sc2nccc(-c3ccc4nc(NC(C)=O)sc4c3)n2)cc1` [Example 16, N-(6-(2-(4-Methoxyphenylthio)pyrimidin-4-yl)benzo[d]thiazol-2-yl)acetamide], the IC50 on PI3K α was 53.5 nM; in test [1] (setting [2]), 825 nM; at PI3K β it was 106 nM.
Take `CC(=O)Nc1nc2ccc(-c3ccnc(N(C)S(=O)(=O)c4ccc5ccccc5c4)n3)cc2s1` [Example 214, N-(6-(2-(N-methylnaphthalene-2-sulfonamido)pyrimidin-4-yl)benzo[d]thiazol-2-yl)acetamide]: the IC50 on PI3K α came out at 74 nM; in test [1] (setting [2]), 256 nM; on PI3K β, 86.2 nM.
In the case of `CC(=O)Nc1nc2ccc(-c3cncc(NS(=O)(=O)c4ccc(C(F)(F)F)cc4)c3)cc2s1` [Example 196, N-(6-(5-(4-(trifluoromethyl)phenylsulfonamido)pyridin-3-yl)benzo[d]thiazol-2-yl)acetamide], the IC50 on PI3K α was determined as 6.7 nM; in test [1] (setting [2]) it was 123 nM; at PI3K β, 15.7 nM.
As to `CC(=O)Nc1nc2ccc(-c3cnc(Cl)c(O)c3)cc2s1` [Example 301, N-(6-(6-chloro-5-hydroxypyridin-3-yl)benzo[d]thiazol-2-yl)acetamide], the half-maximal inhibitory concentration (IC50) is 5 nM at PI3K α, 100 nM in test [1] (setting [2]) and 94.1 nM at PI3K β.
As for `CC(=O)Nc1nc2ccc(-c3ccnc(N(C)S(=O)(=O)c4ccc(C(C)(C)C)cc4)n3)cc2s1` [Example 205, N-(6-(2-(4-tert-butyl-N-methylphenylsulfonamido)pyrimidin-4-yl)benzo[d]thiazol-2-yl)acetamide], the values for the IC50 (at PI3K α; in test [1] (setting [2]); on PI3K β) were 29.5 nM, 57.6 nM and 87.2 nM, respectively.
For `CC(=O)Nc1nc2ccc(-c3ccnc(NS(=O)(=O)c4ccc(C)cc4)c3)cc2s1` [Example 216, N-(6-(2-(4-methylphenylsulfonamido)pyridin-4-yl)benzo[d]thiazol-2-yl)acetamide], in that order: 35.1 nM, 79.4 nM and 120 nM.
On to `CC(=O)Nc1nc2ccc(-c3cncc(NS(=O)(=O)c4ccc(C(C)(C)C)cc4)c3)cc2s1` [Example 201, N-(6-(5-(4-tert-butylphenylsulfonamido)pyridin-3-yl)benzo[d]thiazol-2-yl)acetamide], for which the figures for the IC50 (on PI3K α; in test [1] (setting [2]); at PI3K β) were 6.5 nM, 117 nM and 11.1 nM, respectively.
For `CC(=O)Nc1nc2ccc(-c3cnc(Cl)c(NS(=O)(=O)c4cc(F)cc(F)c4)c3)cc2s1` [Example 176, N-(6-(6-chloro-5-(3,5-difluorophenylsulfonamido)pyridin-3-yl)benzo[d]thiazol-2-yl)acetamide], in that order: 10.3 nM, 18.2 nM and 12.4 nM.
Consider `CC(=O)Nc1nc2ccc(-c3cnc(Cl)c(NS(=O)(=O)c4ccc(C(C)O)cc4)c3)cc2s1` (single isomer, unassigned) [Example 258], for which the IC50 on PI3K α came to 7.6 nM; in test [1] (HCT 116 cells) it was 48.8 nM; at PI3K β, 11.4 nM.
Consider `COCC(=O)Nc1nc2ccc(-c3cnc(Cl)c(N(C)C)c3)cc2s1` [Example 271, N-(6-(6-Chloro-5-(dimethylamino)pyridin-3-yl)benzo[d]thiazol-2-yl)-2-methoxyacetamide], for which the IC50 at PI3K α was found to be 51.5 nM; in test [1] (setting [2]), 312 nM; at PI3K β it was 1230 nM.
For `CCCS(=O)(=O)Nc1cc(-c2ccc3nc(NC(C)=O)sc3c2)cnc1Cl` [Example 177, N-(6-(6-chloro-5-(propylsulfonamido)pyridin-3-yl)benzo[d]thiazol-2-yl)acetamide], the IC50 at PI3K α came out at 15.4 nM; in test [1] (setting [2]), 36.3 nM; on PI3K β, 34.9 nM.
As to `CC(=O)Nc1nc2ccc(-c3cccc(N(C)S(=O)(=O)c4cccc(C)c4)n3)cc2s1` [Example 225, N-(6-(6-(N,3-dimethylphenylsulfonamido)pyridin-2-yl)benzo[d]thiazol-2-yl)acetamide], the IC50 at PI3K α was 64.7 nM; in test [1] (setting [2]), 244 nM; on PI3K β, 294 nM.
For `COc1ccc(S(=O)(=O)c2cccc(-c3ccc4nc(NC(C)=O)sc4c3)n2)cc1` [Example 68, N-(6-(6-(4-Methoxyphenylsulfonyl)pyridin-2-yl)benzo[d]thiazol-2-yl)acetamide], in that order: 86.5 nM, 664 nM and 676 nM.
